Data: patent publication US20220169660A1, “CYCLIC AMINO-PYRAZINECARBOXAMIDE COMPOUNDS AND USES THEREOF” (SILVERBACK THERAPEUTICS, INC., priority 2019, published 2022)

How the values were obtained:
TGFBR2 = biological target: T1, TGFBR2 (Homo sapiens, UniProt P37173); experiment: TGFBR2 RBC enzyme assay (Reaction Biology Corp.); type: biochemical
T1 construct: purchased Reaction Biology Corp
Experimental: Compounds of the disclosure were assayed by Reaction Biology Corp. using the TGFBR2 RBC enzyme assay.

[1] = system: TGFβ/SMAD Singling Pathway SBE reporter cell line; experiment: TGFβ reporter assay (in vitro small molecule screening); type: cell-based; conditions: SBE luciferase reporter cells, TGFβ stimulation, 18 h, luminescence
Experimental: TGFβ/SMAD Singling Pathway SBE reporter cell line was obtained from BPS Bioscience. Cells were passed, expanded, and stored in liquid nitrogen as per the supplier's instructions with the exception that growth media is changed to DMEM-C with Geneticin (DMEM supplemented with 10% fetal bovine serum, 1×NEAA, 1 mM Pyruvate, 2 mM glutamine, 50 μg/mL penicillin, 50 U/mL streptomycin and 400 μg/mL of Geneticin). The assay media was MEM supplemented with […] fetal bovine serum, 1×NEAA, 1 mM Pyruvate, 50 μg/mL penicillin and 50 U/mL streptomycin.
Test samples (at desired concentrations diluted in assay media) were added to a 96-well assay plate, 20 μL per well. Reporter cells were harvested from the tissue culture flasks by incubation in small quantity of PBS at 37° C. for two minutes after the media in the flask is removed and cells rinsed with PBS. Cells were counted and diluted in the assay media at approximately 0.5×10^6 cells/mL and then 80 μL/well of cells were added to the assay plate containing the 20 μL/well of test samples (or media only), and incubated for approximately 5-6 hours at 37° C. in a 5% CO2 humidified incubator. After that time, 15 μL of TGFβ diluted to 12 ng/mL in the assay media was added to the plate. Controls included TGFβ titration (from 50 to 0 ng/mL) without inhibitors, and media only (without cells, inhibitor or TGFβ). Plates were incubated at 37° C. in a 5% CO2 humidified incubator for 18 h. Luciferase substrate solution is subsequently added at 100 μL per well, incubated in the dark at room temperature for 15 min, and luminescence is measured using a luminometer. EC50 values and curve fits were obtained using Prism (GraphPad Software).

T1 sequence (P37173 23-567): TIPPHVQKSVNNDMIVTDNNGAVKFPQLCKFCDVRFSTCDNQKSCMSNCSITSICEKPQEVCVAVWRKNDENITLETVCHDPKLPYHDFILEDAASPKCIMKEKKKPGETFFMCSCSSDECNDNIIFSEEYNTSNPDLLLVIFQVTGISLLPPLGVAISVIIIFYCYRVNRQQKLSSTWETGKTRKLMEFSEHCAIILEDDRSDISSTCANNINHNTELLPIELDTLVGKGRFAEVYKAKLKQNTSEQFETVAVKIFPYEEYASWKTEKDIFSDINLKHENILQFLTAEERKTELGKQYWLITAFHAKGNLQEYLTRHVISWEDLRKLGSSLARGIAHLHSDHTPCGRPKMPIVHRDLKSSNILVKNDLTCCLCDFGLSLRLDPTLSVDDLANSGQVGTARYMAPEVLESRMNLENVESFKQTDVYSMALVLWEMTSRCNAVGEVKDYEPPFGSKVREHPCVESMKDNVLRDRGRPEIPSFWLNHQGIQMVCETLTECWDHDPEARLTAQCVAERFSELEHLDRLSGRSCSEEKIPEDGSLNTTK

Row | SMILES | EC50 (TGFBR2) [µM] | EC50 [1] [µM]
1 | CN1CCCOc2cc(OCCCN)cc(c2)-c2cnc(N)c(n2)C(=O)Nc2cnccc21 [Compound 16, 2^5-amino-1^5-(3-aminopropoxy)-6-methyl-10-oxa-4,6-diaza-2(2,6)-pyrazina-5(3,4)-pyridina-1(1,3)-benzenacyclodecaphan-3-one] | 0.001 to 0.1 | 0.001 to 1
2 | CCCN1CCCOc2cccc(c2)-c2cnc(N)c(n2)C(=O)Nc2cnccc21 [Compound 17, 2^5-amino-6-propyl-10-oxa-4,6-diaza-2(2,6)-pyrazina-5(3,4)-pyridina-1(1,3)-benzenacyclodecaphan-3-one] | 0.001 to 0.1 | 0.001 to 1
3 | CC1CCOc2cccc(c2)-c2cnc(N)c(n2)C(=O)Nc2cnccc2N1C (centres unmarked) [Compound 18, 2^5-amino-6,7-dimethyl-10-oxa-4,6-diaza-2(2,6)-pyrazina-5(3,4)-pyridina-1(1,3)-benzenacyclodecaphan-3-one] | 0.001 to 0.1 | 0.001 to 1
4 | CC1CCN(C)c2ccncc2NC(=O)c2nc(cnc2N)-c2cccc(c2)O1 (centres unmarked) [Compound 19, 2^5-amino-6,9-dimethyl-10-oxa-4,6-diaza-2(2,6)-pyrazina-5(3,4)-pyridina-1(1,3)-benzenacyclodecaphan-3-one] | 0.001 to 0.1 | 0.001 to 1
5 | CC1OCCN(C)c2ccncc2NC(=O)c2nc(cnc2N)-c2cccc1c2 (centres unmarked) [Compound 20] | 0.001 to 0.1 | 0.001 to 1
6 | Nc1ncc2nc1C(=O)Nc1cnccc1OCCCOc1cccc-2c1 [Compound 21, 2^5-amino-6,10-dioxa-4-aza-2(2,6)-pyrazina-5(3,4)-pyridina-1(1,3)-benzenacyclodecaphan-3-one] | > 1 | > 5
7 | Nc1ncc2nc1C(=O)Nc1cnccc1N1CCC(CC1)COc1cccc-2c1 [Compound 22, 1^5-amino-3-oxa-7-aza-1(2,6)-pyrazina-6(4,3)-pyridina-5(4,1)-piperidina-2(1,3)-benzenacyclooctaphan-8-one] | > 1 | > 5
8 | Nc1ncc2nc1C(=O)Nc1cnccc1N1CCC(CC1)Oc1cccc-2c1 [Compound 23, 1^5-amino-3-oxa-6-aza-1(2,6)-pyrazina-5(4,3)-pyridina-4(4,1)-piperidina-2(1,3)-benzenacycloheptaphan-7-one] | > 1 | > 5
9 | Nc1ncc2nc1C(=O)Nc1cnccc1N1CCC(COc3cccc-2c3)C1 (centres unmarked) [Compound 25, 1^5-amino-3-oxa-7-aza-1(2,6)-pyrazina-6(4,3)-pyridina-5(3,1)-pyrrolidina-2(1,3)-benzenacyclooctaphan-8-one] | 0.001 to 0.1 | 0.001 to 1
10 | CN1CCC(=O)Nc2cccc(c2)-c2cnc(N)c(n2)C(=O)Nc2cnccc21 [Compound 26, 2^5-amino-6-methyl-4,6,10-triaza-2(2,6)-pyrazina-5(3,4)-pyridina-1(1,3)-benzenacyclodecaphene-3,9-dione] | 0.001 to 0.1 | 0.001 to 1
11 | CN1CCC(=O)N(C)c2cccc(c2)-c2cnc(N)c(n2)C(=O)Nc2cnccc21 [Compound 27, 2^5-amino-6,10-dimethyl-4,6,10-triaza-2(2,6)-pyrazina-5(3,4)-pyridina-1(1,3)-benzenacyclodecaphane-3,9-dione] | 0.001 to 0.1 | 0.001 to 1
12 | CN1CCNC(=O)c2cccc(c2)-c2cnc(N)c(n2)C(=O)Nc2cnccc21 [Compound 30, 2^5-amino-6-methyl-4,6,9-triaza-2(2,6)-pyrazina-5(3,4)-pyridina-1(1,3)-benzenacyclodecaphane-3,10-dione] | > 1 | > 5
13 | CN1CCCNC(=O)c2cccc(c2)-c2cnc(N)c(n2)C(=O)Nc2cnccc21 [Compound 31, 2^5-amino-6-methyl-4,6,10-triaza-2(2,6)-pyrazina-5(3,4)-pyridina-1(1,3)-benzenacycloundecaphane-3,11-dione] | 0.1 to 1 | 1 to 5
14 | CN1CCCCOc2ccccc2-c2cnc(N)c(n2)C(=O)Nc2cnccc21 [Compound 34, 2^5-amino-6-methyl-11-oxa-4,6-diaza-2(2,6)-pyrazina-5(3,4)-pyridina-1(1,2)-benzenacycloundecaphan-3-one] | 0.1 to 1 | 1 to 5
15 | Nc1ncc2nc1C(=O)Nc1cnccc1O[C@H]1CC[C@H](CC1)Oc1cccc-2c1 [Compound 43, (4^1,4^4-cis)-1^5-amino-3,5-dioxa-7-aza-1(2,6)-pyrazina-6(4,3)-pyridina-2(1,3)-benzena-4(1,4)-cyclohexanacyclooctaphan-8-one] | > 1 | > 5
16 | Nc1ncc2nc1C(=O)Nc1cnccc1OCCOc1ccc(Br)c-2c1 [Compound 49, 2^5-amino-16-bromo-6,9-dioxa-4-aza-2(2,6)-pyrazina-5(3,4)-pyridina-1(1,3)-benzenacyclononaphan-3-one] | 0.001 to 0.1 | 0.001 to 1
17 | Nc1ncc2nc1C(=O)Nc1cnccc1OCCOc1cccc-2c1 [Compound 50, 2^5-amino-6,9-dioxa-4-aza-2(2,6)-pyrazina-5(3,4)-pyridina-1(1,3)-benzenacyclononaphan-3-one] | 0.001 to 0.1 | 0.001 to 1
18 | Nc1ncc2nc1C(=O)Nc1cnccc1SCCCOc1ccc(Br)c-2c1 [Compound 51, 2^5-amino-1^6-bromo-10-oxa-6-thia-4-aza-2(2,6)-pyrazina-5(3,4)-pyridina-1(1,3)-benzenacyclodecaphan-3-one] | 0.001 to 0.1 | 0.001 to 1
19 | CN1CCCNC(=O)c2cc(ccc2OCCCN)-c2cnc(N)c(n2)C(=O)Nc2cnccc21 [Compound 53, 2^5-amino-1^4-(3-aminopropoxy)-6-methyl-4,6,10-triaza-2(2,6)-pyrazina-5(3,4)-pyridina-1(1,3)-benzenacycloundecaphane-3,11-dione] | 0.1 to 1 | > 5
20 | CN1CCNC(=O)c2cc(ccc2OCCCN)-c2cnc(N)c(n2)C(=O)Nc2cnccc21 [Compound 55, 2^5-amino-1^4-(3-aminopropoxy)-6-methyl-4,6,9-triaza-2(2,6)-pyrazina-5(3,4)-pyridina-1(1,3)-benzenacyclodecaphane-3,10-dione] | 0.1 to 1 | > 5
21 | CN1CCN(C)c2ccncc2NC(=O)c2nc(cnc2N)-c2ccc(OCCCN)c(c2)C1=O [Compound 56, 2^5-amino-1^4-(3-aminopropoxy)-6,9-dimethyl-4,6,9-triaza-2(2,6)-pyrazina-5(3,4)-pyridina-1(1,3)-benzenacyclodecaphene-3,10-dione] | 0.001 to 0.1 | 1 to 5
22 | CN1C[C@@H](CNCc2ccccc2)Oc2ccccc2-c2cnc(N)c(n2)C(=O)Nc2cnccc21 [Compound 57, (R)-2^5-amino-8-((benzylamino)methyl)-6-methyl-9-oxa-4,6-diaza-2(2,6)-pyrazin-5(3,4)-pyridina-1(1,2)-benzenacyclononaphan-3-one] | > 1 | 1 to 5
23 | CN1C[C@H](CN)Oc2ccccc2-c2cnc(N)c(n2)C(=O)Nc2cnccc21 [Compound 58, (S)-2^5-amino-8-(aminomethyl)-6-methyl-9-oxa-4,6-diaza-2(2,6)-pyrazina-5(3,4)-pyridina-1(1,2)-benzenacyclononaphan-3-one] | > 1 | 1 to 5
24 | CN1C[C@H](CNCc2ccccc2)Oc2ccccc2-c2cnc(N)c(n2)C(=O)Nc2cnccc21 [Compound 59, (S)-2^5-amino-8-((benzylamino)methyl)-6-methyl-9-oxa-4,6-diaza-2(2,6)-pyrazina-5(3,4)-pyridina-1(1,2)-benzenacyclononaphan-3-one] | > 1 | > 5
25 | CN1C[C@@H](CN)Oc2ccccc2-c2cnc(N)c(n2)C(=O)Nc2cnccc21 [Compound 60, (R)-2^5-amino-8-(aminomethyl)-6-methyl-9-oxa-4,6-diaza-2(2,6)-pyrazina-5(3,4)-pyridina-1(1,2)-benzenacyclononaphan-3-one] | > 1 | 1 to 5
26 | CN1CCCOc2cc(ccc2OCCCN)-c2cnc(N)c(n2)C(=O)Nc2cnccc21 [Compound 61, 2^5-amino-1^4-(3-aminopropoxy)-6-methyl-10-oxa-4,6-diaza-2(2,6)-pyrazina-5(3,4)-pyridina-1(1,3)-benzenacyclodecaphan-3-one] | 0.001 to 0.1 | 0.001 to 1
27 | CN1CCCOc2cc(ccc2CCCCN)-c2cnc(N)c(n2)C(=O)Nc2cnccc21 [Compound 62, 2^5-amino-1^4-(4-aminobutyl)-6-methyl-10-oxa-4,6-diaza-2(2,6)-pyrazin-5(3,4)-pyridina-1(1,3)-benzenacyclodecaphan-3-one] | 0.001 to 0.1 | 0.001 to 1
28 | CN1CCCCc2cc(ccc2OCCCN)-c2cnc(N)c(n2)C(=O)Nc2cnccc21 [Compound 63, 2^5-amino-1^4-(3-aminopropxy)-6-methyl-4,6-diaza-2(2,6)-pyrazina-5(3,4)-pyridina-1(1,3)-benzenacyclodecaphan-3-one] | 0.001 to 0.1 | 0.001 to 1
